Measurements as given in patent US11046716B2, “Beta-lactamase inhibitors” (priority 2015, dated 2021).

Tests used:
[1] = system: E. cloacae expressing the Class C P99; assay: Broth microdilution MIC assay with ceftazidime, E. cloacae P99; format: cell-based; details: Fixed CAZ (ceftazidime) 4 μg/mL; E. cl. 144200 p99 AmpC
Summary of the method: (§1)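 Test compound was titrated 2-fold from 16 to 0.125 μg/mL in cation-adjusted Mueller Hinton broth against a fixed 4 μg/ml β-lactam overlay. Plates were inoculated per CLSI broth microdilution, incubated 16-20 hours at 37° C, and the MIC of the test compound was read visually.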

KPC-2 = target: T1, KPC-2 (Klebsiella pneumoniae, UniProt Q9F663); assay: β-lactamase enzyme inhibition assay, KPC-2 (imipenem substrate); format: biochemical; details: Class A; imipenem substrate, 300 nm; read-out: KPC-2
T1 construct: made in house; host or cells: E. coli BL21(DE3)
Summary of the method: (§2)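 Native untagged β-lactamases were expressed in E. coli BL21(DE3), then purified by cation exchange and gel filtration. Enzyme was preincubated with inhibitor for 15 min at 37 °C before substrate was added. Imipenem (A300) served KPC-2 and cefotaxime (A260) served SHV-5. IC50 was taken from initial hydrolysis rates relative to no-inhibitor controls.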

[2] = system: P. aeruginosa expressing the Class B carbapenemase VIM-2; assay: Broth microdilution MIC assay with meropenem, P. aeruginosa VIM-2; format: cell-based; details: Fixed Mero (meropenem) 4 μg/mL; P. aerug. 2775 VIM-2
Summary of the method: as §1

VIM-2 = target: T2, VIM-2 (Escherichia coli, UniProt Q5U7L7); assay: β-lactamase enzyme inhibition assay, VIM-2 (nitrocefin substrate); format: biochemical; details: Class B; nitrocefin substrate, 486 nm; read-out: VIM-2
T2 construct: made in house; host or cells: E. coli BL21(DE3)
Summary of the method: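 Purified VIM-2 (Q sepharose anion exchange, Hepes pH 7.5, >90% pure) was preincubated with inhibitor at 37 °C for 15 min, then nitrocefin added at 100 μM final. Absorbance at 486 nm was followed for 10 min; IC50 was taken from maximum hydrolysis rates relative to inhibitor-free controls.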

[3] = system: E. coli expressing the Class A Extended Spectrum Beta-Lactamase (ESBL) CTX-M-15; assay: Broth microdilution MIC assay with ceftazidime, E. coli CTX-M-15; format: cell-based; details: Fixed CAZ (ceftazidime) 4 μg/mL; E. coli ESBL4 CTX-M-15
Summary of the method: as §1

[4] = system: K. pneumoniae producing the Class D carbapenemase OXA-48; assay: Broth microdilution MIC assay with meropenem, K. pneumoniae OXA-48; format: cell-based; details: Fixed Mero (meropenem) 4 μg/mL; K. p. 11978 OXA-48
Summary of the method: as §1

[5] = system: K. pneumoniae expressing the class A carbapenemase KPC-2 and the class B carbapenemase VIM-4; assay: Broth microdilution MIC assay with meropenem, K. pneumoniae KPC-2 and VIM-4; format: cell-based; details: Fixed Mero (meropenem) 4 μg/mL; K. p. A-1797 KPC-2 VIM-4
Summary of the method: as §1

[6] = system: K. pneumoniae expressing the Class A carbapenemase KPC-2; assay: Broth microdilution MIC assay with meropenem, K. pneumoniae KPC-2; format: cell-based; details: Fixed Mero (meropenem) 4 μg/mL; K. p. 156319 KPC-3
Summary of the method: as §1

SHV-5 = target: T3, SHV-5 (Klebsiella pneumoniae, UniProt P0A3M1); assay: β-lactamase enzyme inhibition assay, SHV-5 (cefotaxime substrate); format: biochemical
T3 construct: made in house; host or cells: E. coli BL21(DE3)
Summary of the method: as §2

OXA-48 = OXA-48 (UniProt Q6XEC0); assay: β-lactamase enzyme inhibition assay, Class D oxacillinase; format: biochemical; details: read-out: OXA-48
AmpC = target: T4, AmpC (Enterobacter cloacae, UniProt P05364); assay: β-lactamase enzyme inhibition assay, p99 AmpC (nitrocefin substrate); format: biochemical
T4 construct: made in house; host or cells: E. coli BL21(DE3)
Summary of the method: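 Native untagged β-lactamases were expressed in E. coli BL21(DE3), then purified by cation exchange and gel filtration. Enzyme was preincubated with inhibitor for 15 min at 37 °C before substrate was added. IC50 was taken from initial hydrolysis rates relative to no-inhibitor controls.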

T3 sequence (P0A3M1 22-286): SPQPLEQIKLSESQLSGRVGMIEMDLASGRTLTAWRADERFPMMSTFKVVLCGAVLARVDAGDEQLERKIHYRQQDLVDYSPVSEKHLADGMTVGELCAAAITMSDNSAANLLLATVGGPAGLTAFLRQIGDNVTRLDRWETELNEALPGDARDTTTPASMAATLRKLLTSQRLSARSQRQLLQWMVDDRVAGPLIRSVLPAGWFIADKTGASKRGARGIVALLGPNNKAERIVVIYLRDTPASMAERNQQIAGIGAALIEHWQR
T4 sequence (P05364 21-381): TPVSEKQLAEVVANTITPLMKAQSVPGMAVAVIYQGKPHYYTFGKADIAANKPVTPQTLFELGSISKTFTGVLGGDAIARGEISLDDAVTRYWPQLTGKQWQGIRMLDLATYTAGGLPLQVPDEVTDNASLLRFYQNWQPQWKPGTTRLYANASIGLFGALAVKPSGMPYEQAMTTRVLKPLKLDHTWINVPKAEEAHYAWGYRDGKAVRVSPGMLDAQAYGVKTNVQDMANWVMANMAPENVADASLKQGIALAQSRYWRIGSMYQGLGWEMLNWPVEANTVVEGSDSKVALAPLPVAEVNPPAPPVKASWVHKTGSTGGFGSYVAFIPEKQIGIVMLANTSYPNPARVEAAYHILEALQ
T1 sequence (Q9F663 25-293, looked up): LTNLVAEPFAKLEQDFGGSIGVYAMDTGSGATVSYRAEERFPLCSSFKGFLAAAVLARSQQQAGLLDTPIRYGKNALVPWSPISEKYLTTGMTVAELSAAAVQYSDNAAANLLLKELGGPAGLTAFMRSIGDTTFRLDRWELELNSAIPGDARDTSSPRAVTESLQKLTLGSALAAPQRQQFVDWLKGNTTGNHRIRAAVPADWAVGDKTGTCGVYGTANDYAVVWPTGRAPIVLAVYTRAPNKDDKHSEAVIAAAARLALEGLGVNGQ

| Compound | MIC (μg/mL) of Exemplary Compounds in presence of fixed β-lactams: E. cl. 144200 p99 AmpC [1] | IC50 (KPC-2) [nM] | MIC (μg/mL) of Exemplary Compounds in presence of fixed β-lactams: P. aerug. 2775 VIM-2 [2] | IC50 (VIM-2) [nM] | MIC (μg/mL) of Exemplary Compounds in presence of fixed β-lactams: E. coli ESBL4 CTX-M-15 [3] | MIC (μg/mL) of Exemplary Compounds in presence of fixed β-lactams: K. p. 11978 OXA-48 [4] | MIC (μg/mL) of Exemplary Compounds in presence of fixed β-lactams: K. p. A-1797 KPC-2 VIM-4 [5] | MIC (μg/mL) of Exemplary Compounds in presence of fixed β-lactams: K. p. 156319 KPC-3 [6] | IC50 (SHV-5) [nM] | IC50 (OXA-48) [nM] | IC50 (AmpC) [nM] |
| --- | --- | --- | --- | --- | --- | --- | --- | --- | --- | --- | --- |
| NCCOCc1cn(CC(=O)N[C@H]2Cc3cccc(C(=O)O)c3OB2O)nn1 [Example 34, (R)-3-(2-(4-((2-aminoethoxy)methyl)-1H-1,2,3-triazol-1-yl)acetamido)-2-hydroxy-3,4-dihydro-2H-benzo[e][1,2]oxaborinine-8-carboxylic acid] | C (C represents an MIC of <1 μg/mL) | < 100 | C (C represents an MIC of <1 μg/mL) | 100 to 1000 | C (C represents an MIC of <1 μg/mL) | B (B represents an MIC between 1 and 16 μg/mL inclusive) | B (B represents an MIC between 1 and 16 μg/mL inclusive) | B (B represents an MIC between 1 and 16 μg/mL inclusive) | < 100 | 1000 to 10000 | < 100 |
| NC(=O)c1ncn(CC(=O)N[C@H]2Cc3cccc(C(=O)O)c3OB2O)n1 [Example 35, (R)-3-(2-(3-carbamoyl-1H-1,2,4-triazol-1-yl)acetamido)-2-hydroxy-3,4-dihydro-2H-benzo[e][1,2]oxaborinine-8-carboxylic acid] | C (C represents an MIC of <1 μg/mL) | < 100 | B (B represents an MIC between 1 and 16 μg/mL inclusive) | 1000 to 10000 | C (C represents an MIC of <1 μg/mL) | B (B represents an MIC between 1 and 16 μg/mL inclusive) | A (A represents an MIC>16 μg/mL) | B (B represents an MIC between 1 and 16 μg/mL inclusive) | < 100 | 1000 to 10000 | < 100 |
| Nc1n[nH]c2ncc(-c3cn(CC(=O)N[C@H]4Cc5cccc(C(=O)O)c5OB4O)nn3)cc12 [Example 36] | C (C represents an MIC of <1 μg/mL) | < 100 | B (B represents an MIC between 1 and 16 μg/mL inclusive) | 1000 to 10000 | C (C represents an MIC of <1 μg/mL) | B (B represents an MIC between 1 and 16 μg/mL inclusive) | A (A represents an MIC>16 μg/mL) | B (B represents an MIC between 1 and 16 μg/mL inclusive) | < 100 | 100 to 1000 | < 100 |
| NCCNC(=O)c1cn(CC(=O)N[C@H]2Cc3cccc(C(=O)O)c3OB2O)nn1 [Example 37, (R)-3-(2-(4-((2-aminoethyl)carbamoyl)-1H-1,2,3-triazol-1-yl)acetamido)-2-hydroxy-3,4-dihydro-2H-benzo[e][1,2]oxaborinine-8-carboxylic acid] | C (C represents an MIC of <1 μg/mL) | < 100 | C (C represents an MIC of <1 μg/mL) | < 100 | C (C represents an MIC of <1 μg/mL) | B (B represents an MIC between 1 and 16 μg/mL inclusive) | C (C represents an MIC of <1 μg/mL) | B (B represents an MIC between 1 and 16 μg/mL inclusive) | < 100 | 1000 to 10000 | < 100 |
